This passage reports DC50 and Emax results from ChEMBL document CHEMBL4387721, “Proteolysis targeting chimeras (PROTACs) in 'beyond rule-of-five' chemical space: Recent progress and future challenges” (Bioorg Med Chem Lett, 2019).

For test [1], the target named is T1, von Hippel-Lindau disease tumor suppressor/Receptor-type tyrosine-protein kinase FLT3 (Homo sapiens, UniProt P36888+P40337). The test can be described thus: Protac activity at VHL/FLT3 in human MOLM14 cells assessed as induction of FLT3 protein degradation measured after 4 hrs by immunoblot analysis. In kind it is cell-based. (A western blot detects proteins with antibodies after separation by electrophoresis.)

In test [2] the target is T1, von Hippel-Lindau disease tumor suppressor/Receptor-type tyrosine-protein kinase FLT3. The test can be described thus: Protac activity at VHL/FLT3 in human MOLM14 cells assessed as induction of FLT3 protein degradation at 50 nM measured after 4 hrs by immunoblot analysis relative to control. In kind it is cell-based.
Test [3] has as its target T2, Protein cereblon/B-cell lymphoma 6 protein (Homo sapiens, UniProt Q96SW2+P41182). Nature of the test: Protac activity at CRBN/BCL6 in human SUDHL4 cells assessed as induction of BCL6 protein degradation at 1 uM after 4 hrs by Western blot analysis relative to control. In kind it is cell-based.
Test [4] deals with T2, Protein cereblon/B-cell lymphoma 6 protein. Nature of the test: Protac activity at CRBN/BCL6 in human SUDHL4 cells assessed as induction of BCL6 protein degradation after 4 hrs by Western blot analysis. In kind it is cell-based.
Test [5] concerns the target T3, von Hippel-Lindau disease tumor suppressor/Bromodomain-containing protein 4 (Homo sapiens, UniProt O60885+P40337). The test can be described thus: Protac activity at VHL/BRD4 in human HeLa cells assessed as induction of BRD4 protein degradation at 50 nM up to 36 hrs by Western blot analysis relative to control. In kind it is cell-based.
Test [6] has as its target T4, Estrogen receptor/E3 ubiquitin-protein ligase XIAP (Homo sapiens, UniProt P03372+P98170). Nature of the test: Protac activity at ERalpha/XIAP in human MCF7 cells assessed as induction of ERalpha degradation at 100 nM by Western blot analysis relative to control. In kind it is cell-based.
Test [7] deals with T4, Estrogen receptor/E3 ubiquitin-protein ligase XIAP. Nature of the test: Protac activity at ERalpha/XIAP in human MCF7 cells assessed as induction of ERalpha degradation after 4 hrs by Western blot analysis. In kind it is cell-based.
Test [8] addresses T3, von Hippel-Lindau disease tumor suppressor/Bromodomain-containing protein 4. Nature of the test: Protac activity at VHL/BRD4 short isoform in human HeLa cells assessed as induction of BRD4 short isoform degradation incubated for 24 hrs by Western blot analysis relative to control. In kind it is cell-based.
For test [9] the target is unchanged. The test can be described thus: Protac activity at VHL/BRD4 short isoform in human HeLa cells assessed as induction of BRD4 short isoform degradation incubated for 24 hrs by Western blot analysis. In kind it is cell-based.
Test [10] deals with Protein cereblon/Bromodomain-containing protein 4 (Homo sapiens) (UniProt O60885+Q96SW2). Nature of the test: Protac activity at Cereblon/BRD4 in human MV411 cells assessed as induction of BRD4 protein degradation at 1 uM incubated for 18 hrs by immunoblot analysis relative to control. In kind it is cell-based.
Test [11] concerns the target T5, BRD4/E3 ubiquitin-protein ligase Mdm2 (Homo sapiens, UniProt Q00987+O60885). Nature of the test: Protac activity at BRD4/MDM2 in human HCT116 cells assessed as induction of BRD4 degradation at 100 nM after 24 hrs by immunoblotting analysis relative to control. In kind it is cell-based.
For test [12], the target named is T5, BRD4/E3 ubiquitin-protein ligase Mdm2. Nature of the test: Protac activity at BRD4/MDM2 in human HCT116 cells assessed as induction of BRD4 degradation at after 24 hrs by immunoblotting analysis. In kind it is cell-based.
The target of test [13] is T6, von Hippel-Lindau disease tumor suppressor/Steroid hormone receptor ERR1 (Homo sapiens, UniProt P11474+P40337). The test can be described thus: Protac activity at VHL/ERRalpha in epoxomicin pre-treated human MCF7 cells assessed as induction of ERRalpha protein degradation at 1 uM incubated for 8 hrs by Western blot analysis relative to control. In kind it is cell-based.
Target sequence in this assay (P11474 whole entry, looked up): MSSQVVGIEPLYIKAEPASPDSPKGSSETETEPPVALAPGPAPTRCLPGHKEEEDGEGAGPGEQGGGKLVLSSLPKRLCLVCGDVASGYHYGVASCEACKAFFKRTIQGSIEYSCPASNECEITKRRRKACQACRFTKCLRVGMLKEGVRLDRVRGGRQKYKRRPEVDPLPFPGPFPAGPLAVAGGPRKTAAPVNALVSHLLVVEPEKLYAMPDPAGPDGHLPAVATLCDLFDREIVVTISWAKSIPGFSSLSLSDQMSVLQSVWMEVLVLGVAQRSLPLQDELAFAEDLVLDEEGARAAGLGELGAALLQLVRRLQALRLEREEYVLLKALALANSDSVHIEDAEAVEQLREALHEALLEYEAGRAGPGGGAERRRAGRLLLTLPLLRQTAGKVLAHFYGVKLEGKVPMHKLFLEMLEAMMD
Target sequence in this assay (P40337 whole entry, looked up): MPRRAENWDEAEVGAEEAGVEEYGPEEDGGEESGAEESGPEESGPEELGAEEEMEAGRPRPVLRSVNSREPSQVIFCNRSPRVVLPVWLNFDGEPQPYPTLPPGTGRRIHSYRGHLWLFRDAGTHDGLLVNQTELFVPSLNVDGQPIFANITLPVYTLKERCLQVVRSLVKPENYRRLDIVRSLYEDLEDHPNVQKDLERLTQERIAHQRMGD

For test [14], the target named is T6, von Hippel-Lindau disease tumor suppressor/Steroid hormone receptor ERR1. Nature of the test: Protac activity at VHL/ERRalpha in epoxomicin pre-treated human MCF7 cells assessed as induction of ERRalpha protein degradation incubated for 8 hrs by Western blot analysis. In kind it is cell-based.
Target sequence in this assay (P11474 whole entry): as the sequence (P11474 whole entry, looked up) above
Target sequence in this assay (P40337 whole entry): as the sequence (P40337 whole entry, looked up) above
The target of test [15] is Protein cereblon/Histone acetyltransferase KAT2A (Homo sapiens) (UniProt Q92830+Q96SW2). Nature of the test: Protac activity at CRBN/GCN5 in human THP1 cells assessed as induction of GCN5 protein degradation at 1 nM incubated for 18 hrs by Western blot analysis relative to control. In kind it is cell-based.
For test [16], the target named is Protein cereblon/Histone acetyltransferase KAT2B (Homo sapiens) (UniProt Q92831+Q96SW2). Nature of the test: Protac activity at CRBN/PCAF in human THP1 cells assessed as induction of PCAF protein degradation incubated for 18 hrs by Western blot analysis relative to control. In kind it is cell-based.
Test [17] has as its target T7, von Hippel-Lindau disease tumor suppressor/Focal adhesion kinase 1 (Homo sapiens, UniProt Q05397+P40337). The test can be described thus: Protac activity at VHL/FAK in serum deprived human PC3 cells assessed as induction of FAK protein degradation in serum deprived human PC3 cells at 50 nM after 24 hrs by Western blot analysis relative to control.
Target sequence in this assay (P40337 whole entry partner): as the sequence (P40337 whole entry, looked up) above
Target sequence in this assay (Q05397 2-1052 limits assumed): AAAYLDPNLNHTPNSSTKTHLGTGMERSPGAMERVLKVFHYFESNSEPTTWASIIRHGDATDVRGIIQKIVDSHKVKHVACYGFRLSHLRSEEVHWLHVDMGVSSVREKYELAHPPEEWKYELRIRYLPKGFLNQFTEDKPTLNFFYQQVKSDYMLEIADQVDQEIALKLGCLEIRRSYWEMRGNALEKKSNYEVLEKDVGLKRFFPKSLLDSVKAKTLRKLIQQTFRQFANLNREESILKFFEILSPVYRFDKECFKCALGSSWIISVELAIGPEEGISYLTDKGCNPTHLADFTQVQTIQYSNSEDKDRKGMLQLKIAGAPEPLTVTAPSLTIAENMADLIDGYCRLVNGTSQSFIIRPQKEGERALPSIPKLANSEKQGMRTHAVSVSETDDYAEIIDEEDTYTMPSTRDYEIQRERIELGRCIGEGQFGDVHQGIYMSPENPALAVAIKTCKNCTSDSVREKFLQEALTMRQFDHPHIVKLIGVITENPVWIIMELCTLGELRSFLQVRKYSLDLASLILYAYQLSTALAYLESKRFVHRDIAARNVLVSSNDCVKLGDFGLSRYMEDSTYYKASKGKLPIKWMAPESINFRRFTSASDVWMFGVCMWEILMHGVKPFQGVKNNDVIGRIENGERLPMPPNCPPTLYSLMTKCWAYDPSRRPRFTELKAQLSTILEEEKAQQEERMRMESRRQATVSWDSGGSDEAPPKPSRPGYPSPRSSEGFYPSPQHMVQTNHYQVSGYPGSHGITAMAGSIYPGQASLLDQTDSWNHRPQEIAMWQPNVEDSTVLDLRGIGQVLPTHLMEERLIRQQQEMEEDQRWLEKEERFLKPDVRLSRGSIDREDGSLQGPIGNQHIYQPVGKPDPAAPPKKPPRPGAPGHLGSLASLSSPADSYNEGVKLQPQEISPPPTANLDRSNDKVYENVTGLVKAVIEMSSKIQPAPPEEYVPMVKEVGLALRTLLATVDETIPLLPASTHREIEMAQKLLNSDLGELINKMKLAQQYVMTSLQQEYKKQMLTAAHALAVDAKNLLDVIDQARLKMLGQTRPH
The target of test [18] is T7, von Hippel-Lindau disease tumor suppressor/Focal adhesion kinase 1. Nature of the test: Protac activity at VHL/FAK in serum deprived human PC3 cells assessed as induction of FAK protein degradation in serum deprived human PC3 cells after 24 hrs by Western blot analysis.
Target sequence in this assay (Q05397 whole entry): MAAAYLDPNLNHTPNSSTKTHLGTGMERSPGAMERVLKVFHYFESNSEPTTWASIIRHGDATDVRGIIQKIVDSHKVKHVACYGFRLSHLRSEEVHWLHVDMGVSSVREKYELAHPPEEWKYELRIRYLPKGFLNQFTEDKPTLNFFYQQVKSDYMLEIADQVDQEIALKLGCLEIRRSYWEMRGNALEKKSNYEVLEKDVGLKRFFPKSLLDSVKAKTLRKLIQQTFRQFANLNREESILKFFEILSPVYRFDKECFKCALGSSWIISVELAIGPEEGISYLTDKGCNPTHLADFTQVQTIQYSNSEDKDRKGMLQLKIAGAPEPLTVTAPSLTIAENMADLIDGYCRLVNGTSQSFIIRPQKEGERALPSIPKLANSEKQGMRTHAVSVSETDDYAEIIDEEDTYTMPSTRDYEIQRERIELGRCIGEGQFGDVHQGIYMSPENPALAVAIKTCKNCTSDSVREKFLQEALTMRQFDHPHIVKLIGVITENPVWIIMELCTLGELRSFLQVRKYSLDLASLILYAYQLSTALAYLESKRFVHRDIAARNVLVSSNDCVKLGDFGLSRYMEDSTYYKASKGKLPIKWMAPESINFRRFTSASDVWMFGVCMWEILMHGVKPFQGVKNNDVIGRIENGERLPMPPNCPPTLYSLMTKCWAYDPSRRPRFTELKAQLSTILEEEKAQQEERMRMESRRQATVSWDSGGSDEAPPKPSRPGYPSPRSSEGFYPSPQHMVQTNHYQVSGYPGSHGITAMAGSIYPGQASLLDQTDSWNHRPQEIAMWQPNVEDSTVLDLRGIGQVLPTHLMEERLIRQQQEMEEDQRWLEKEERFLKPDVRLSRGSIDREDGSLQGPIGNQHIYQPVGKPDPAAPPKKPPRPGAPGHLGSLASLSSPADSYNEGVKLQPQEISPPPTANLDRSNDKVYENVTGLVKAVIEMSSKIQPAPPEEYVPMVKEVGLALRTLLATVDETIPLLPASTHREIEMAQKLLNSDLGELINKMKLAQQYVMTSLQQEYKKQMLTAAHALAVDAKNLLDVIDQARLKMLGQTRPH
Target sequence in this assay (P40337 whole entry): as the sequence (P40337 whole entry, looked up) above

The DC50 is the concentration giving 50% degradation. A word on the Emax: it is the greatest response seen or fitted, relative to the assay's reference.

T3 sequence (P40337 whole entry, looked up, other chains not shown): as the sequence (P40337 whole entry, looked up) above
T2 sequence (Q96SW2 whole entry, looked up, other chains not shown): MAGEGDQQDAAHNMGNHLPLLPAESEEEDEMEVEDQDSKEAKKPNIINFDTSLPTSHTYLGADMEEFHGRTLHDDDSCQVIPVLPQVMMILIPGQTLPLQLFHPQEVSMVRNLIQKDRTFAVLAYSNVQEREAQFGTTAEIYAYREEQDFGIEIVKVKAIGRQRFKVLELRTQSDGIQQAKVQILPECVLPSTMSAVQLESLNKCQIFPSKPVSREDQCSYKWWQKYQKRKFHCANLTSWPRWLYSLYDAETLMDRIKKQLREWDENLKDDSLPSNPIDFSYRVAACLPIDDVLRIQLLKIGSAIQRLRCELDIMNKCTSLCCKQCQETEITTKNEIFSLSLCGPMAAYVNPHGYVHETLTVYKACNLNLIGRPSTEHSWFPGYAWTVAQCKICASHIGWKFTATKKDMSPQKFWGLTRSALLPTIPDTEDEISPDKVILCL
T5 sequence (Q00987 whole entry, looked up, other chains not shown): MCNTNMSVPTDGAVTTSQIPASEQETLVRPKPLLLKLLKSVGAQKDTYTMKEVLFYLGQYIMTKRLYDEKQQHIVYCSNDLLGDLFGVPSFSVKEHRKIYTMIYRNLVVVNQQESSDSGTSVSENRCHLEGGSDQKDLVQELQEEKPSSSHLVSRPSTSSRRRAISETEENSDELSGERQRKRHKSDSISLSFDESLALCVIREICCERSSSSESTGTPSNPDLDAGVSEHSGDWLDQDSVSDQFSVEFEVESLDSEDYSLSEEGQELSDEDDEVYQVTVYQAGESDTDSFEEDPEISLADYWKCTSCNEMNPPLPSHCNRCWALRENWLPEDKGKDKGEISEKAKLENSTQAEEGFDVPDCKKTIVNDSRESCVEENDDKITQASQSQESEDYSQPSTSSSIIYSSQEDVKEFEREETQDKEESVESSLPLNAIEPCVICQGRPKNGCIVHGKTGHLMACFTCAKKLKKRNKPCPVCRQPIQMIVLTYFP

As to `Cc1ncsc1-c1ccc(CNC(=O)[C@@H]2C[C@@H](O)CN2C(=O)[C@@H](NC(=O)CCOCCOCCOc2ccc3c(c2)sc2nc(-c4ccc(NC(=O)Nc5cc(C(C)(C)C)on5)cc4)cn23)C(C)(C)C)cc1`, the DC50 in test [1] was less than 5 nM. Also, the Emax in [2] was more than 90%. Consider `CN1C(=O)CCc2cc3cc(c21)OCCOC[C@H]1CN(C(=O)CCC(=O)NCCCOCCOCCOCCOCCOc2cccc4c2C(=O)N(C2CCC(=O)NC2=O)C4=O)CCN1c1ncc(Cl)c(n1)N3` (stereo partly drawn), for which the Emax in [3] came out at 84%. Further, the half-maximal degradation concentration (DC50) in [4] was less than 1000 nM. Consider `Cc1ncsc1-c1ccc(CNC(=O)[C@@H]2C[C@@H](O)CN2C(=O)[C@@H](NC(=O)COCCOCCOCCNC(=O)C[C@@H]2N=C(c3ccc(Cl)cc3)c3c(sc(C)c3C)-n3c(C)nnc32)C(C)(C)C)cc1`, for which, in [5], the Emax was more than 96%.

For `CC/C(=C(\c1ccc(O)cc1)c1ccc(OCCN(C)C(=O)COCCOCCOCCOc2cccc(O[C@H]3C[C@@H](C(=O)N[C@@H]4CCCc5ccccc54)N(C(=O)[C@@H](NC(=O)[C@H](C)NC)C4CCCCC4)C3)c2)cc1)c1ccccc1`, the Emax in test [6] was 80%. The DC50 in test [7] is less than 3 nM. For `CC(=O)N[C@H](C(=O)N1C[C@H](O)C[C@H]1C(=O)NCc1ccc(-c2scnc2C)cc1)C(C)(C)SCCCCCCNC(=O)C[C@@H]1N=C(c2ccc(Cl)cc2)c2c(sc(C)c2C)-n2c(C)nnc21`, the Emax in [8] was more than 90%. Further, the DC50 in test [9] fell in the range of 10 to 100 nM. With `Cc1sc2c(c1C)C(c1ccc(Cl)cc1)=N[C@@H](CC(=O)NCCCCNC(=O)COc1cccc3c1C(=O)N(C1CCC(=O)NC1=O)C3=O)c1nnc(C)n1-2` (stereo partly drawn), the Emax in test [10] worked out at 95%. In the case of `COc1cc(C(=O)NCCOCCOCCOCCNC(=O)C[C@@H]2N=C(c3ccc(Cl)cc3)c3c(sc(C)c3C)-n3c(C)nnc32)ccc1NC(=O)[C@@H]1N[C@@H](CC(C)(C)C)[C@](C#N)(c2ccc(Cl)cc2F)[C@H]1c1cccc(Cl)c1F`, in test [11], the maximal effect (Emax) is 98%. Also, in test [12], the DC50 worked out at 32 nM.

For `COc1cc(/C=C2\SC(=O)N(CCOCCC(=O)N[C@H](C(=O)N3C[C@H](O)C[C@H]3C(=O)NCc3ccc(-c4scnc4C)cc3)C(C)(C)C)C2=O)ccc1Oc1ccc(C#N)cc1C(F)(F)F`, the Emax in [13] came out at 86%. Also, the DC50 in test [14] is 100 nM. `CN1C[C@H](Nc2cnn(C)c(=O)c2Br)C[C@H](c2ccc(C(=O)N(C)CCCN(C)c3ccc(CCCOc4cccc5c4C(=O)N(C4CCC(=O)NC4=O)C5=O)cc3)cc2)C1` (stereo partly drawn): the maximum response (Emax) in [15] amounted to 81%; in test [16], 97%. Take `Cc1ncsc1-c1ccc(CNC(=O)[C@@H]2C[C@@H](O)CN2C(=O)[C@@H](NC(=O)CCOCCOc2ccc(Nc3ncc(C(F)(F)F)c(NCc4cccc(N(C)S(C)(=O)=O)c4)n3)cc2)C(C)(C)C)cc1`: the Emax in test [17] is more than 99%. Also, the DC50 in test [18] stood at 3 nM.
